According to article PMC12054466 (RSC Advances, 2025):
Read-outs that look alike come from different tables or passages of the source.

Tests used:
[1] = rabbits, single oral dose 10 mg kg^−1, n = 5, mean; unit as in Table 4
[2] = assay type: binding

CC(C)(C(=O)O)c1ccc(C(O)CCCN2CCC(C(O)(c3ccccc3)c3ccccc3)CC2)cc1 (stereo not shown) [fexofenadine, Fexofenadine]
λz [1]: 0.06 h
Ksv (Stern–Volmer quenching constant) ([2]; 298 K (25 °C)): 1.36 10^6 M^−1
Ksv (Stern–Volmer quenching constant) ([2]; 303 K): 1.09 10^6 M^−1
Ksv (Stern–Volmer quenching constant) ([2]; 308 K (35 °C)): 0.95 10^6 M^−1
